Source: US20250019350A1, “SYNTHESIS OF THE PROSTATE SPECIFIC MEMBRANE ANTIGEN (PSMA) RADIOLABELED INHIBITOR [18F]DCFPYL” (Progenics Pharmaceuticals, Inc, priority 2023, published 2025)

Test: HPLC/UV (264 nm) chemical impurity assay; ascorbic acid related impurity
Type: physicochemical
Conditions: development lot at 163.0 mCi/mL with ascorbic acid
Description: Analytical HPLC method was used. The method employs UV detection at 264 nm for chemical impurities, and an Eckert & Ziegler model B-FC-1000 gamma detector for radiochemical assays.
Since the peak has not been previously observed in preparations in the absence of ascorbic acid it is likely ascorbic acid related and was further investigated. A decayed sample from the lot produced was analyzed further and confirmed the presence of the peak, FIG. 35. […] The sample was assayed for chemical impurities at T=0, 4, 10 and 24 hours when held inverted at ambient conditions. […] The impurity only formed with radioactivity exposure but not when stored in light or dark at ambient conditions (see FIG. 37).

Q: Which “chemical impurity at retention time approximately 4.6 minutes on the UV trace” value does the source give for `O=C(O)CC[C@H](NC(=O)N[C@@H](CCCCNC(=O)c1ccc([18F])nc1)C(=O)O)C(=O)O` [Lot 18F-DCFPyL, 2-(3-{1-carboxy-5-[(6-[18F]fluoro-pyridine-3-carbonyl)-amino]-pentyl}ureido)-pentanedioic acid] here?
A: Its value is 0.9 µg/mL.
